Patent publication US4742053A, “3-Isoquinoliniomethyl cephalosporin derivatives” (Banyu Pharmaceutical Co., Ltd., priority 1984, dated 1988)
In brackets after ≈: the same amount, converted by molar mass.

Experiments:
Format in all cases: cell-based
E. coli NIHJ = assay: bioautography (TLC); conditions: TLC Merck silica gel F254, E. coli NIHJ
Protocol: 2.5 mg of the compound obtained in Example 4 (C) was suspended in 0.5 ml of methanol, and 35 μl of concentrated aqueous ammonia was added thereto. The mixture was left to stand at room temperature for 1 hour. […] The fraction of this peak was separated and freeze-dried to obtain 1 mg of the above identified compound.

E. coli CSH2 = assay: MIC by agar plate dilution method; conditions: Escherichia coli, 10^6 CFU/ml, read-out: Minimum Inhibitory Concentration
In short: (§1)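 Plate dilution in agar (Sensitivity Disk Agar medium), 10^6 CFU/ml inoculum, MIC in μg/ml.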

E. coli C/Rms149 = assay: MIC by agar plate dilution method; conditions: Escherichia coli, read-out: Minimum Inhibitory Concentration, E. coli C/Rms149; 10^6 CFU/ml
In short: as §1

E. coli NIHJJC-2 = assay: MIC by agar plate dilution method; conditions: Escherichia coli, NIHJJC2, E. coli NIHJJC-2; 10^6 CFU/ml; read-out: Minimum Inhibitory Concentration
In short: as §1

S. aureus JS-1 = assay: MIC by agar plate dilution method; conditions: Staphylococcus aureus, JS1; S. aureus JS-1; 10^6 CFU/ml; read-out: Minimum Inhibitory Concentration
In short: as §1

A. calcoaceticus No. 14 = assay: MIC by agar plate dilution method; conditions: Acinetobacter calcoaceticus, NO.14, A. calcoaceticus No. 14; 10^6 CFU/ml; read-out: Minimum Inhibitory Concentration
In short: as §1

P. vulgaris No. 33 = assay: MIC by agar plate dilution method; conditions: Proteus vulgaris; P. vulgaris No. 33; 10^6 CFU/ml; read-out: Minimum Inhibitory Concentration
In short: as §1

P. aeruginosa AK109 = assay: MIC by agar plate dilution method; conditions: Pseudomonas aeruginosa, AK109, P. aeruginosa AK109; 10^6 CFU/ml; read-out: Minimum Inhibitory Concentration
In short: as §1

S. marcescens No. 16-2 = assay: MIC by agar plate dilution method; conditions: Serratia marcescens, NO.162; S. marcescens No. 16-2; 10^6 CFU/ml; read-out: Minimum Inhibitory Concentration
In short: as §1

S. aureus NIHJJC-1 = assay: MIC by agar plate dilution method; conditions: Staphylococcus aureus, NIHJJC1, read-out: Minimum Inhibitory Concentration
In short: as §1

E. coli ML1410/Rte16 = assay: MIC by agar plate dilution method; conditions: Escherichia coli, ML1410/RTE16, read-out: Minimum Inhibitory Concentration, E. coli ML1410/Rte16; 10^6 CFU/ml
In short: as §1

P. mirabilis JY10 = assay: MIC by agar plate dilution method; conditions: Proteus mirabilis; P. mirabilis JY10; 10^6 CFU/ml; read-out: Minimum Inhibitory Concentration
In short: as §1

C. freundii No. 7 = assay: MIC by agar plate dilution method; conditions: Citrobacter freundii; C. freundii No. 7; 10^6 CFU/ml; read-out: Minimum Inhibitory Concentration
In short: as §1

E. coli CSH = assay: MIC by agar plate dilution method; conditions: Escherichia coli, 10^6 CFU/ml, read-out: Minimum Inhibitory Concentration
In short: as §1

E. cloaceae Nek 39 = assay: MIC by agar plate dilution method; conditions: E. cloaceae Nek 39; 10^6 CFU/ml; read-out: Minimum Inhibitory Concentration
In short: as §1

K. pneumoniae No. 42 = assay: MIC by agar plate dilution method; conditions: Klebsiella pneumoniae, NO.42, read-out: Minimum Inhibitory Concentration
In short: as §1

P. vulgaris OB1043 = assay: MIC by agar plate dilution method; conditions: Proteus vulgaris, OB1043, P. vulgaris OB1043; 10^6 CFU/ml; read-out: Minimum Inhibitory Concentration
In short: as §1

E. coli W3630/Rms212 = assay: MIC by agar plate dilution method; conditions: Escherichia coli, W3630/RMS212, read-out: Minimum Inhibitory Concentration, E. coli W3630/Rms212; 10^6 CFU/ml
In short: as §1

E. coli W3630/Rms213 = assay: MIC by agar plate dilution method; conditions: Escherichia coli, W3630/RMS213, read-out: Minimum Inhibitory Concentration, E. coli W3630/Rms213; 10^6 CFU/ml
In short: as §1

P. aeruginosa AKR17 = assay: MIC by agar plate dilution method; conditions: Pseudomonas aeruginosa, AKR17, P. aeruginosa AKR17; 10^6 CFU/ml; read-out: Minimum Inhibitory Concentration
In short: as §1

bacteria = assay: antibacterial spectrum of the compound of Example 6; conditions: compared with the compound of Example 3 (E)

CON=C(C(=O)NC1C(=O)N2C(C(=O)[O-])=C(C[N+]3(C)CCc4cc(O)c(O)cc4C3)CSC12)c1csc(N)n1 (stereo not drawn) [Ex. 3-E, 7-[(Z)-2-(2-aminothiazol-4-yl)-2-methoxyiminoacetamido]-3-(6,7-dihydroxy-2-methyl-1,2,3,4-tetrahydro-2-isoquinolinium)methyl-3-cephem-4-carboxylate]
antibacterial spot in bioautography (E. coli NIHJ): shows a spot exhibiting antibacterial activities at Rf=0.1
MIC (E. coli CSH2): 0.1 mg/L (≈ 0.174 µM)
MIC (E. coli C/Rms149): 0.1 mg/L (≈ 0.174 µM)
MIC (E. coli NIHJJC-2): 0.1 mg/L (≈ 0.174 µM)
MIC (S. aureus JS-1): 6.25 mg/L (≈ 10.9 µM)
MIC (A. calcoaceticus No. 14): 0.39 mg/L (≈ 0.679 µM)
MIC (P. vulgaris No. 33): 0.2 mg/L (≈ 0.348 µM)
MIC (P. aeruginosa AK109): 0.78 mg/L (≈ 1.36 µM)
MIC (S. marcescens No. 16-2): 12.5 mg/L (≈ 21.8 µM)
MIC (S. aureus NIHJJC-1): 1.56 mg/L (≈ 2.71 µM)
MIC (E. coli ML1410/Rte16): 0.1 mg/L (≈ 0.174 µM)
MIC (P. mirabilis JY10): 0.78 mg/L (≈ 1.36 µM)
MIC (C. freundii No. 7): 3.12 mg/L (≈ 5.43 µM)
MIC (E. coli CSH): 0.78 mg/L (≈ 1.36 µM)
MIC (E. cloaceae Nek 39): 0.1 mg/L (≈ 0.174 µM)
MIC (K. pneumoniae No. 42): 0.39 mg/L (≈ 0.679 µM)
MIC (P. vulgaris OB1043): 0.78 mg/L (≈ 1.36 µM)
MIC (E. coli W3630/Rms212): 0.05 mg/L (≈ 0.087 µM)
MIC (E. coli W3630/Rms213): 1.56 mg/L (≈ 2.71 µM)
MIC (P. aeruginosa AKR17): 3.12 mg/L (≈ 5.43 µM)
antibacterial spectrum (bacteria): exhibited the same antibacterial spectrum as the compound of Example 3 (E)
